# Experiments:
# [1] = target: T1, COX-2 human recombinant enzyme (Homo sapiens, UniProt P35354); assay: Fluorometric COX-2 inhibitor screening kit; format: biochemical; conditions: IC50 ± standard error
# T1 construct: purchased Abcam ab283401
# T1 sequence (P35354 18-604): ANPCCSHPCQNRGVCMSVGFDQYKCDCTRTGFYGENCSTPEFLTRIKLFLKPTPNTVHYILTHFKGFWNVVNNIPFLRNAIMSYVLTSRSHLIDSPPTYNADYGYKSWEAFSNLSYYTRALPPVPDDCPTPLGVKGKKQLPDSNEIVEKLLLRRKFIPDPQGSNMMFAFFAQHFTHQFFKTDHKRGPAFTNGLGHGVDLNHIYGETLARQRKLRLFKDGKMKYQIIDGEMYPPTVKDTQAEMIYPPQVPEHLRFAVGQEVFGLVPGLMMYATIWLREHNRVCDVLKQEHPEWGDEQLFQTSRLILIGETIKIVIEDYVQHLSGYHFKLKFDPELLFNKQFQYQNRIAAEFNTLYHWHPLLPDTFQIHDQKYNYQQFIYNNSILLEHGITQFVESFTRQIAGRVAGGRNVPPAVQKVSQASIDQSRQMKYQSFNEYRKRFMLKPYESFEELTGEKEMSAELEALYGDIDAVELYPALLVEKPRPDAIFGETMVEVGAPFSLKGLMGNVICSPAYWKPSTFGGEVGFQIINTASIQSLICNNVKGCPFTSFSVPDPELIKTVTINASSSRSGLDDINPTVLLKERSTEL
# Protocol: The COX-1 and COX-2 inhibitory activates of the synthesized compounds were tested using fluorometric COX-1 (Catalog Number: ab204698) and COX-2 (Catalog Number: ab283401) inhibitor screening kits (Abcam, United Kingdom). These assays are based on the fluorometric detection of Prostaglandin G2, generated by the COX enzyme. The experiment was conducted according to the manufacturer’s instructions. Each assay consists of a COX Assay Buffer, COX Probe (in DMSO), COX Cofactor (in DMSO), arachidonic acid and NaOH. The COX-1 inhibitor screening kit contains COX-1 ovine enzyme and COX-1 inhibitor SC560 (dissolved in DMSO), while the COX-2 inhibitor screening kit contains COX-2 human recombinant enzyme and COX-2 inhibitor Celecoxib (dissolved in DMSO). The tested compounds were dissolved in DMSO and further diluted five times with the COX Assay Buffer. The Inhibitor Control (IC) was prepared by adding 2 µL of COX-1/COX-2 inhibitor and 8 µL of COX Assay Buffer into assigned wells, while the Solvent Control (SC) was prepared by adding 2 µL of DMSO and 8 µL of COX Assay Buffer into assigned wells and the Sample (S) and Enzyme Control (EC) were prepared by adding 10 µL of diluted tested compounds or COX Assay Buffer into assigned wells. The Reaction Master Mix (COX Assay Buffer, COX Probe, Diluted COX Cofactor and COX-1/COX-2 Enzyme) was prepared according to instructions and 80 µL of the Reaction Master Mix was added into each well. Meanwhile, a diluted arachidonic acid/NaOH solution was prepared and 10 µL was added into each well using a multi-channel pipette to initiate all the reactions at the same time. […] The EC, SC, IC and tested compounds at all concentrations were analyzed in triplicates. Two points (T1 and T2) in the linear range of the plot were chosen and corresponding fluorescence values (RFU1 and RFU2) were obtained. The slope for all samples was calculated by dividing ΔRFU (RFU2-RFU1) by time Δt (T2−T1). The percentage of inhibition was calculated as follows: % Relative Inhibition=Slope of EC−Slope of S/Slope of EC∗100
# (§1) Fluorescence measurements were performed on a BioTek Synergy LX multi-mode reader (Winooski, VT, USA).
# 5-LOX enzyme = target: T2, 5-LOX enzyme (Homo sapiens, UniProt P09917); assay: Fluorometric 5-LOX inhibitor screening kit; format: biochemical; conditions: IC50 ± standard error
# T2 construct: purchased MyBioSource MBS846911
# T2 sequence (P09917 1-674): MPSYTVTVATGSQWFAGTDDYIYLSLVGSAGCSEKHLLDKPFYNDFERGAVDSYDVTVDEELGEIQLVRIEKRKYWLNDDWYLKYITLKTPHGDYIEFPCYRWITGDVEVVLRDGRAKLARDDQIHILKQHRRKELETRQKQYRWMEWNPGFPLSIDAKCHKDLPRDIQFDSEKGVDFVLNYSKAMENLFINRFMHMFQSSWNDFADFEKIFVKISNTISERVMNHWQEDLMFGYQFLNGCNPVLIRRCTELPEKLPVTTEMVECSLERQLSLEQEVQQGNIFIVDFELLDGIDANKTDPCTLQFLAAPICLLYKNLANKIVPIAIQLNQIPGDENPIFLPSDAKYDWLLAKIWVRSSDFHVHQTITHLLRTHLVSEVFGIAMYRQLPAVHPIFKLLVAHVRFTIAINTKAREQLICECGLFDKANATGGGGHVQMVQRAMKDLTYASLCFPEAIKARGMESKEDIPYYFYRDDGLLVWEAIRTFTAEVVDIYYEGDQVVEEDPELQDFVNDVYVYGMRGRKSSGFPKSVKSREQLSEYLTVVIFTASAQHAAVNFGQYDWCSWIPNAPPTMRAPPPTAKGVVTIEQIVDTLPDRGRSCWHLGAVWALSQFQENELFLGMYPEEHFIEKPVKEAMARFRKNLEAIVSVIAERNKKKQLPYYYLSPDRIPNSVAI
# Protocol: The 5-LOX inhibitory activates of synthesized compounds were tested using a fluorometric 5-LOX inhibitor screening kit (MyBioSource, San Diego, CA, USA; Catalog Number: MBS846911). This assay is based on the fluorometric detection of the intermediate generated by the 5-LOX enzyme. The experiment was conducted according to the manufacturer’s instructions. […] The tested compounds were dissolved in DMSO. Test solutions were added to corresponding wells at an amount of 2 µL out of the final 100 µL reaction volume per well. […] The volume was adjusted to 40 µL in each well by adding 38 µL of LOX Assay Buffer. The Reaction Mix (containing LOX Assay Buffer, LOX Probe and 5-LOX Enzyme) was prepared according to the instructions and 40 µL of the Reaction Mix was added into each well. The plate was incubated at room temperature for 10 min before adding the substrate diluted in the LOX Assay Buffer (1:2500 dilution factor). The final substrate solution was added at an amount of 20 µL into each well using a multi-channel pipette to initiate all the reactions at the same time. […] The EC, SC, IC and tested compounds at all concentrations were analyzed in triplicates. Two points (T1 and T2) in the linear range of the plot were chosen and corresponding fluorescence values (RFU1 and RFU2) were obtained. The slope for all samples was calculated by dividing ΔRFU (RFU2-RFU1) by the time Δt (T2−T1). The percentage of inhibition was calculated according to the equation mentioned in Section 3.3.1.
# as §1
Compound,IC50 [1],IC50 (5-LOX enzyme)
"COc1ccc2c(c1)c(CNC(=O)NO)c(C)n2C(=O)c1ccc(Cl)cc1 [Compound 1, N’-hydroxy-N-[(1-(4-chlorobenzoyl)-5-methoxy-2-methyl-3-indolyl)methyl]urea]",18.3 ± 2.17 µM,5.71 ± 0.15 µM
"O=C(NO)NCc1ccccc1Nc1c(Cl)cccc1Cl [Compound 3, N’-hydroxy-N-[(2-(2,6-dichloroanilino)phenyl)methyl]urea]",5.26 ± 0.34 µM,1.73 ± 0.64 µM
"COC(=O)C(Cc1c[nH]cn1)NC(=O)c1cc(C(C)(C)C)c(O)c(C(C)(C)C)c1 (centres unmarked) [Compound 4, 2-(3,5-di-tert-butyl-4-hydroxy-benzoylamino)-3-(1H-imidazol-4-yl)-propionic acid methyl ester]",> 100 µM,8.1 ± 2.12 µM
"COC(=O)CNC(=O)c1cc(C(C)(C)C)c(O)c(C(C)(C)C)c1 [Compound 5, (3,5-di-tert-butyl-4-hydroxy-benzoylamino)-acetic acid methyl ester]",10.6 ± 0.8 µM,9.3 ± 1.87 µM
"C=CCNC(=O)c1cc(C(C)(C)C)c(O)c(C(C)(C)C)c1 [Compound 6, N-allyl-3,5-di-tert-butyl-4-hydroxy-benzamide]",6.89 ± 0.83 µM,53.8 ± 11.9 µM
"C#CCNC(=O)c1cc(C(C)(C)C)c(O)c(C(C)(C)C)c1 [Compound 7, 3,5-di-tert-butyl-4-hydroxy-N-prop-2-ynyl-benzamide]",> 100 µM,12.6 ± 3.36 µM
"CCOc1ccccc1NC(=O)N(C)C [Compound 8, 3-(2-ethoxy-phenyl)-1,1-dimethyl-urea]",> 100 µM,14.5 ± 3.62 µM
"COc1ccc2cc(C(C)N(O)C(C)=O)ccc2c1 (centres unmarked) [Compound 12, N-hydroxy-N-[1-(6-methoxy-naphthalen-2-yl)-ethyl]-acetamide]",83.4 ± 4.37 µM,1.29 ± 0.1 µM

# Now from value to molecule:
IC50 [1],IC50 (5-LOX enzyme),Compound
6.72 ± 0.79 µM,1.62 ± 0.67 µM,CC(NC(=O)NO)c1ccc(-c2ccccc2)c(F)c1 (centres unmarked) [Compound 2]
> 100 µM,> 100 µM,"CN(C)C(=O)Nc1ccccc1C(=O)O [Compound 9, 2-(3,3-dimethyl-ureido)-benzoic acid]"
> 100 µM,13 ± 2.67 µM,"CCOc1ccccc1NC(=O)Nc1ccc([N+](=O)[O-])cc1 [Compound 10, 1-(2-ethoxy-phenyl)-3-(4-nitro-phenyl)-urea]"
36.2 ± 3.08 µM,1.04 ± 0.22 µM,CC(=O)N(O)C(C)c1ccc(CC(C)C)cc1 (centres unmarked) [Compound 11]
> 100 µM,13.6 ± 3.54 µM,"CC(C)(C)c1cc(C=C2SC(=S)N(N)C2=O)cc(C(C)(C)C)c1O [Compound 13, 3-amino-5-(3,5-di-tert-butyl-4-hydroxy-benzylidene)-2-thioxo-thiazolidin-4-one]"

# From article PMC10142505, “Synthesis, Evaluation of Enzyme Inhibition and Redox Properties of Potential Dual COX-2 and 5-LOX Inhibitors” (Pharmaceuticals, 2023)
